The values below come from ChEMBL document CHEMBL3991601, “The target landscape of clinical kinase drugs” (Science, 2017).

The source made the active and inactive calls. Rule as the data show it, for most assays here: actives have a measured Kd and inactives only a lower limit.

One assay concerns the target T1, Ephrin type-B receptor 6 (Homo sapiens, UniProt O15197).
T1 sequence (O15197 whole entry): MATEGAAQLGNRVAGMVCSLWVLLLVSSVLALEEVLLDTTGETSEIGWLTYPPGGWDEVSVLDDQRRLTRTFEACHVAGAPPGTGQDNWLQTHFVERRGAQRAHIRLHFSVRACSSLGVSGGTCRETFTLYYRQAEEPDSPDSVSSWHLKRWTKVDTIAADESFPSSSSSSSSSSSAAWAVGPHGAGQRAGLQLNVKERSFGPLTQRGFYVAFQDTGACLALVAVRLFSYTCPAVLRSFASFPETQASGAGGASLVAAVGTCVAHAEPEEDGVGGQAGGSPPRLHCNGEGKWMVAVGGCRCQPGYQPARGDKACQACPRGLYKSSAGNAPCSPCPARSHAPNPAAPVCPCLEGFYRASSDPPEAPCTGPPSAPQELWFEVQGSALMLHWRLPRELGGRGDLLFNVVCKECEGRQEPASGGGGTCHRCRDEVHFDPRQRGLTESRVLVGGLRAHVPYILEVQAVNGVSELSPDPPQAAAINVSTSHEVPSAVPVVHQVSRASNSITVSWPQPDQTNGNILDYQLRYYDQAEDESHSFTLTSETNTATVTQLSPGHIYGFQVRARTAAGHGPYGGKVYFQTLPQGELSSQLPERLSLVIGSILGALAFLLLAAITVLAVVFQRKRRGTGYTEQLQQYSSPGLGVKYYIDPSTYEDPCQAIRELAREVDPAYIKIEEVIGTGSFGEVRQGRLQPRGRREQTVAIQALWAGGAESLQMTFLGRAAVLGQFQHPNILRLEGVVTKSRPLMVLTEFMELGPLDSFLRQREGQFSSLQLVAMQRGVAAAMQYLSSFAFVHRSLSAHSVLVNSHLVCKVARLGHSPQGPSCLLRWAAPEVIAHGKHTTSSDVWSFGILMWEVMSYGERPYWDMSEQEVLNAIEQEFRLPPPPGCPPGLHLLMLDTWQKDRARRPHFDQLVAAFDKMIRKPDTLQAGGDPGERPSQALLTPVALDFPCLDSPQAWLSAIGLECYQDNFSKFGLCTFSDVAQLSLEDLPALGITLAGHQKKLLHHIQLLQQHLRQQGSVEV

For assay [1], the target named is T2, Dual specificity mitogen-activated protein kinase kinase 5 (Homo sapiens, UniProt Q13163).
T2 sequence (Q13163 whole entry): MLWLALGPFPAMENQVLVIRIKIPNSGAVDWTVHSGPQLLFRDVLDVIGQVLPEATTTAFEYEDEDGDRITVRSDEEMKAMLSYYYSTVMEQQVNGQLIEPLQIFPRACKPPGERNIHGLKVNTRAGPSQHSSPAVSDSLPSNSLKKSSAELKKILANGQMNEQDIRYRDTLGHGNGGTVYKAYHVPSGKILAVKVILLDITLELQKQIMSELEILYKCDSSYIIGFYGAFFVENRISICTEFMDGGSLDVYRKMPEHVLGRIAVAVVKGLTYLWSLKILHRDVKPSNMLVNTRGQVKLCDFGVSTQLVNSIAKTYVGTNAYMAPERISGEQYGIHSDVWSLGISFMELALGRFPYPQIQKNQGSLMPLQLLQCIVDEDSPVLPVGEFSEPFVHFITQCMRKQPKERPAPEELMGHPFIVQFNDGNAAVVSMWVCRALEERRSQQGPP

The target in assay [2] is T3, Exosome RNA helicase MTR4 (Homo sapiens, UniProt P42285).
T3 sequence (P42285 whole entry): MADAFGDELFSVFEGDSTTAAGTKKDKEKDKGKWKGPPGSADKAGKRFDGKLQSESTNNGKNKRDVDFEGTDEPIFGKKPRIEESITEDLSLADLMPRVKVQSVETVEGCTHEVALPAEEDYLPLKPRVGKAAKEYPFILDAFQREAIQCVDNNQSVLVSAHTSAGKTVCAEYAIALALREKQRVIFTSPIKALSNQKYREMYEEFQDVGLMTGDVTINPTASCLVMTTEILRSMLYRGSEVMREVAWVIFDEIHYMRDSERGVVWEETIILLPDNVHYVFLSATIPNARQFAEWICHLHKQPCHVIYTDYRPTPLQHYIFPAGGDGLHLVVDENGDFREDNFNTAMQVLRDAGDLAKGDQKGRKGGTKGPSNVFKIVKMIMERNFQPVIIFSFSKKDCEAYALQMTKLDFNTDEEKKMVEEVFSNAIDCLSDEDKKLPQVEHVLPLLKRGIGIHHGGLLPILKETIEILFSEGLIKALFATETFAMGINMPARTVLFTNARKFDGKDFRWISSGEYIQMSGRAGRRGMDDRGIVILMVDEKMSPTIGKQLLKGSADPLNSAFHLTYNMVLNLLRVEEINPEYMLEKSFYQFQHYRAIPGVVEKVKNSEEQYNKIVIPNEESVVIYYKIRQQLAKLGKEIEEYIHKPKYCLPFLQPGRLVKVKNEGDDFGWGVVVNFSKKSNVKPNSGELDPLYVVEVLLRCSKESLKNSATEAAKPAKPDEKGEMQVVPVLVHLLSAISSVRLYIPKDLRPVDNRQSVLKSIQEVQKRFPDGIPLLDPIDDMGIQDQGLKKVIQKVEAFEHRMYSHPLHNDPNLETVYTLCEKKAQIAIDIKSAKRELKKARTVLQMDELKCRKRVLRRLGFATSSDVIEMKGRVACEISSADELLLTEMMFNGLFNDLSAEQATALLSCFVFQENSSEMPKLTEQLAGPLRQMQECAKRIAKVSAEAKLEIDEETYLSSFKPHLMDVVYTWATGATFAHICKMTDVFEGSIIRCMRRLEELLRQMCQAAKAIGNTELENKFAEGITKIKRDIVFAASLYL

For the next assay, the target named is Actin-related protein 2 (Homo sapiens, UniProt P61160).
The next assay deals with LIM domain kinase 2 (Homo sapiens, UniProt P53671).
Sequence of LIM domain kinase 2 (P53671 whole entry, the tested form may be a part): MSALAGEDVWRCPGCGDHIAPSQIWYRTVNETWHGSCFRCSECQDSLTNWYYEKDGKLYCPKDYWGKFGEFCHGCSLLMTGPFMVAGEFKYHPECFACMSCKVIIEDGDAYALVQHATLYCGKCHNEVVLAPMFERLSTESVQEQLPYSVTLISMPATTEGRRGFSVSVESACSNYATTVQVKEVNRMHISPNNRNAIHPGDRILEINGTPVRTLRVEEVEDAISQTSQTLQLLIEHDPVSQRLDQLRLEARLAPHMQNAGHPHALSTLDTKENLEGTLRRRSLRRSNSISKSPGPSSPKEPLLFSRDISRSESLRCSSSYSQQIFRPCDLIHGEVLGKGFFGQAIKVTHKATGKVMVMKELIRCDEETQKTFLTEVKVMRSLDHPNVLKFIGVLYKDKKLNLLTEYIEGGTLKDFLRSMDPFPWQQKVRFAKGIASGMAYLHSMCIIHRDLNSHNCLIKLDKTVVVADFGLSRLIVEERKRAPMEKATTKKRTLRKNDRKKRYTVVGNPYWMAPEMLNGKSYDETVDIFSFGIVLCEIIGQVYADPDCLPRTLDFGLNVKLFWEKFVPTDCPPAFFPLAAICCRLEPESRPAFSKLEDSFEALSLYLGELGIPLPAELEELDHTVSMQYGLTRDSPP
Assay [3] addresses T4, Dual specificity mitogen-activated protein kinase kinase 3 (Homo sapiens, UniProt P46734).
T4 sequence (P46734 whole entry): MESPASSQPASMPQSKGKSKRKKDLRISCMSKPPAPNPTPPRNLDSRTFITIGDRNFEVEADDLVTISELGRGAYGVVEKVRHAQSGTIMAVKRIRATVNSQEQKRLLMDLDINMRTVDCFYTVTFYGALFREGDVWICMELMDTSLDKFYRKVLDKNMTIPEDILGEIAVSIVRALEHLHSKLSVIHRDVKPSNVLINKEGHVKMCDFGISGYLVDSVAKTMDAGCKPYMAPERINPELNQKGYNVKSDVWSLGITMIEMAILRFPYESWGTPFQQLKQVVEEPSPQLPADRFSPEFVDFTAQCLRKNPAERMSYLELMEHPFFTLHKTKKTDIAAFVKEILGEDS

In assay [4] the target is Tyrosine-protein kinase ABL2 (Homo sapiens, UniProt P42684).
Sequence of Tyrosine-protein kinase ABL2 (P42684 whole entry): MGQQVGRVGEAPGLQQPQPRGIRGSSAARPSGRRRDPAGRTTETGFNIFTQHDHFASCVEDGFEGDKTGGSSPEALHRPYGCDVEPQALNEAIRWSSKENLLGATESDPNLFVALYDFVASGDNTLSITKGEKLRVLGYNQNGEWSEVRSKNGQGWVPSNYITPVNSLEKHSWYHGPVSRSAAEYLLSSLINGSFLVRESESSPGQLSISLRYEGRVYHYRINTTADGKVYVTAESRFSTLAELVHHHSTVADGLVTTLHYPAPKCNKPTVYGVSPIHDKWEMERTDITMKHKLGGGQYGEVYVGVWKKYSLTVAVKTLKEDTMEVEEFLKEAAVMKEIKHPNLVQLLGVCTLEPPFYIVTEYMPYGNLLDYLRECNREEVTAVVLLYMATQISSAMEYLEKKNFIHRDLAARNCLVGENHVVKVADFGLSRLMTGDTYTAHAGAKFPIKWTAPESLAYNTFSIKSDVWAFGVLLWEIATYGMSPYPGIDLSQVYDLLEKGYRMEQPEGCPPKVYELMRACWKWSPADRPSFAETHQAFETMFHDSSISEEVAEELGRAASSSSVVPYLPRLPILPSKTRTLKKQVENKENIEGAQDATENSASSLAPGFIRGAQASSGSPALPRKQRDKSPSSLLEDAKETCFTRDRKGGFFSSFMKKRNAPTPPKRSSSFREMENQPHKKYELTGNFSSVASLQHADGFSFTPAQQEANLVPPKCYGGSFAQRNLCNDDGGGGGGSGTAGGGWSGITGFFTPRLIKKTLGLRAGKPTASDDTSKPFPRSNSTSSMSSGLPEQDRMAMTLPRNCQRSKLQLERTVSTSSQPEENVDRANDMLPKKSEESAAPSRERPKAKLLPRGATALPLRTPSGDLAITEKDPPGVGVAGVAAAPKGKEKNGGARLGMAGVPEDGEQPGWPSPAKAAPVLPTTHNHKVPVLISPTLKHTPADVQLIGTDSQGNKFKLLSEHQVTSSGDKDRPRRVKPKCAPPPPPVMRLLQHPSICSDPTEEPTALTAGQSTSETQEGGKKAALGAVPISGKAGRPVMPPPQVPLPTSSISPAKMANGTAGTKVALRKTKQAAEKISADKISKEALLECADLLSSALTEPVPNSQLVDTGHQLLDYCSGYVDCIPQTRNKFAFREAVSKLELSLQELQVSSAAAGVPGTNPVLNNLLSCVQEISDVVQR
Also: in the data inactive means no Kd found up to 30 µM.

`CCc1nc(C(N)=O)c(Nc2ccc(N3CCC(N4CCN(C)CC4)CC3)c(OC)c2)nc1NC1CCOCC1` [GILTERITINIB]: the dissociation constant (Kd) – broadly, the free concentration of one partner at which half of the binding sites on the other are occupied at equilibrium, for simple one-to-one binding – was 0.241 µM on Ephrin type-B receptor 6; 2.04 µM (active) in assay [1]; > 30 µM (inactive) in assay [2]; > 30 µM (inactive) on Actin-related protein 2; > 30 µM (inactive) at LIM domain kinase 2; > 30 µM (inactive) in assay [3]. Moreover, in assay [4], the Kd was > 30 µM (inactive).

For `Cc1cc(Nc2nc(N[C@@H](C)c3ncc(F)cn3)ncc2Cl)n[nH]1` [AZD-1480], the Kd (on Ephrin type-B receptor 6; in assay [1]; in assay [2]; on Actin-related protein 2; on LIM domain kinase 2; in assay [3]) was > 30 µM (inactive) in each case. Moreover, in assay [4], the Kd is > 30 µM (inactive).

As for `Cc1ccc(C(=O)Nc2ccc(Oc3cc4cnn(C)c4cc3-c3cn[nH]c3)c(F)c2)c(=O)n1-c1ccc(F)cc1` [MERESTINIB], the Kd (on Ephrin type-B receptor 6; in assay [1]; in assay [2]; at Actin-related protein 2; at LIM domain kinase 2; in assay [3]) was > 30 µM (inactive) in each case. Besides, the Kd in assay [4] was > 30 µM (inactive).

As for `C#Cc1cccc(Nc2ncnc3cc4c(cc23)OCCOCCOCCO4)c1` [ICOTINIB], the Kd (at Ephrin type-B receptor 6; in assay [1]; in assay [2]; at Actin-related protein 2; on LIM domain kinase 2; in assay [3]) was > 30 µM (inactive) in each case. For the same molecule, the Kd in assay [4] was > 30 µM (inactive).

As for `C=CCn1c(=O)c2cnc(Nc3ccc(N4CCN(C)CC4)cc3)nc2n1-c1cccc(C(C)(C)O)n1` [ADAVOSERTIB], the Kd at Ephrin type-B receptor 6 is 0.337 µM (active); in assay [1] it was > 30 µM (inactive); in assay [2], > 30 µM (inactive); on Actin-related protein 2, > 30 µM (inactive); on LIM domain kinase 2 it was > 30 µM (inactive); in assay [3], > 30 µM (inactive). For the same molecule, the Kd in assay [4] is > 30 µM (inactive).

For `O[C@H]1CC[C@H](Nc2ncc3nc(Nc4c(F)cc(F)cc4F)n([C@H]4CCOC4)c3n2)CC1` [TANZISERTIB], the Kd on Ephrin type-B receptor 6 is > 30 µM (inactive); in assay [1] it was > 30 µM (inactive); in assay [2] it was > 30 µM (inactive); on Actin-related protein 2 it was > 30 µM (inactive); on LIM domain kinase 2, 1.84 µM (active); in assay [3] it was > 30 µM (inactive). Further, the Kd in assay [4] was > 30 µM (inactive).

Consider `FC(F)(F)c1ccc(CNc2ccc(Cc3c[nH]c4ncc(Cl)cc34)cn2)cn1` [PEXIDARTINIB], for which the Kd (at Ephrin type-B receptor 6; in assay [1]; in assay [2]; on Actin-related protein 2; on LIM domain kinase 2; in assay [3]) was > 30 µM (inactive) in each case. In assay [4], the Kd was > 30 µM (inactive).

Consider `CNC(=O)c1cc(COc2nnc(Nc3ccc(Cl)cc3)c3ccoc23)ccn1` [TELATINIB], for which the Kd (at Ephrin type-B receptor 6; in assay [1]; in assay [2]; at Actin-related protein 2; at LIM domain kinase 2; in assay [3]) was > 30 µM (inactive) each time. For the same molecule, the Kd in assay [4] was > 30 µM (inactive).

`CNC(=O)c1cccc(-c2ccc3c(N4CCOC[C@@H]4C)nc(N4CCOC[C@@H]4C)nc3n2)c1` [VISTUSERTIB]: the Kd (at Ephrin type-B receptor 6; in assay [1]; in assay [2]; at Actin-related protein 2; at LIM domain kinase 2; in assay [3]) was > 30 µM (inactive) throughout. Further, the Kd in assay [4] was > 30 µM (inactive).

Consider `O=S(=O)(c1cccc2cnccc12)N1CCCNCC1` [FASUDIL], for which the Kd (on Ephrin type-B receptor 6; in assay [1]; in assay [2]; at Actin-related protein 2; on LIM domain kinase 2; in assay [3]) was > 30 µM (inactive) each time. Moreover, the Kd in assay [4] was > 30 µM (inactive).

Take `NC(=O)c1ccc(N(C(N)=O)c2c(F)cccc2F)nc1-c1ccc(F)cc1F` [VX-702]: the Kd (on Ephrin type-B receptor 6; in assay [1]; in assay [2]; on Actin-related protein 2; at LIM domain kinase 2; in assay [3]) was > 30 µM (inactive) each time. Besides, the Kd in assay [4] is > 30 µM (inactive).

Consider `Cc1cc(-c2cc(OC(=O)c3ccccc3)ccc2Cl)cc2nnc(Nc3ccc(OCCN4CCCC4)cc3)nc12` [TG100-801], for which the Kd (at Ephrin type-B receptor 6; in assay [1]; in assay [2]; on Actin-related protein 2; at LIM domain kinase 2; in assay [3]) was > 30 µM (inactive) in each case. For the same molecule, the Kd in assay [4] is 1.03 µM (active).

On to `C=CCN(/C=C1/C(=O)O[C@H](COC)[C@@]2(C)C1=C(O)C(=O)C1=C2[C@H](OC(C)=O)C[C@]2(C)C(=O)CC[C@@H]12)CC=C` [SONOLISIB], for which the Kd (at Ephrin type-B receptor 6; in assay [1]; in assay [2]; on LIM domain kinase 2; in assay [3]; in assay [4]) was > 30 µM (inactive) each time.
